Laboratory results published in patent US4590166A, “Method for separating and measuring the amount of polar compounds and their metabolites in aqueous solutions” (priority 1983, dated 1986).

Legend:
[1] = urinary excretion of pyridostigmine in rats; assay type: in vivo, rat
Method: (§1) For animal studies, rats weighing 175-225 g were placed in metabolic cages and deprived of solid food for 14 hours. For urine studies they were hydrated by the administration of 2.5 ml per 100 g of warm water by stomach tube. This was repeated after 1 hour. An 80 μg aliquot of pyridostigmine in 0.2 ml water was injected intramuscularly into a hind limb. Urine free from feces was collected over a period of 24 hours. In blood studies a similar dose was administered intramuscularly. At selected intervals over a period of 1 hour blood specimens were collected from excised hearts.
(§2) The assay was applied to the quantitation of pyridostigmine in urine and plasma of rats following the oral administration of 450 μg of pyridostigmine bromide per kg of body weight. One ml of urine and 1.5 ml of plasma samples were used for an assay. The urinary excretion of pyridostigmine in three rats over a 24-hour period was 60.0 and 65.4% of […]

[2] = plasma levels of pyridostigmine in rats; assay type: in vivo, rat
Method: as §1, §2

[3] = extraction of pyridostigmine from basic solutions by organic solvents; assay type: physicochemical

With `CN(C)C(=O)Oc1ccc[n+](C)c1` [pyridostigmine] the “urinary excretion of pyridostigmine (% of the total dose injected)” value ([1]; over a 24-hour period, 450 μg/kg pyridostigmine bromide, 0.45 mg/kg, 1440 min) was 65.4%, the dose excreted at 48 h ([1]; rat, urine, im, 0.08 mg, between 24 and 48 hours, read-out: urinary excretion (% of the total dose injected)) was under 5% and the dose excreted at 24 h ([1]; rat, urine, im, 0.45 mg/kg, over a 24-hour period, 450 μg/kg pyridostigmine bromide, read-out: urinary excretion of pyridostigmine (% of the total dose injected)) was 60%. For the same molecule, the “initial plasma concentrations relative to that of urine” value ([2]; average of three experiments for a single time point) was “about 1/25”, the concentration at 7 min ([2]; plasma, im, 0.08 mg, approximately 80 μg per rat, after 7 min) was 250 ng/mL and the concentration at 1 h ([2]; plasma, im, 0.08 mg, approximately 80 μg per rat, within 1 hour) was under 50 ng/mL. The “extraction from basic solutions by organic solvents of various polarities” value [3] was “could not extract”.
